Reference: patent US11559575B2, “Multi-epitopic peptide compounds and vaccines against leishmaniasis” (INSTITUT DE RECHERCHE POUR LE DEVELOPPEMENT, priority 2018, dated 2023)
Entries after “also recorded” stand apart in the source; their conditions may differ.

tested on: HLA alleles of class II; assay: Affinity of epitopes for HLA alleles of class II; format: binding, human; conditions: H2B-II core epitopes, Table 1
Excerpt: The multiepitopic peptide compounds (24 to 40-mer), having a high affinity with a maximized number of HLA molecules of class I and of class II, such as the affinities for the alleles HLA of class I and HLA of class II of the epitopes in the peptides of the sequences SEQ ID NO: 22, 23, 65, 66, 69, 73, 77, 96, 97, 137, 138, and 157, 185, have a high immunoprevalent potential corresponding to an optimal vaccine coverage, in particular for the populations concerned. The degree of coverage of the peptide compounds of the invention show a very high added value compared with the peptides of the prior art.

For “AQMSMSHRT (Leishmania major) [SEQ ID NO: 42]”, which “Affinity HLA alleles of class II” value is on record?
Its value is “HLA-DRB1*07:01”.

How did the “Affinity HLA alleles of class II” value turn out when “YVGRSLKAI (Leishmania major) [SEQ ID NO: 54]” was run?
The value was “HLA-DRB1*08:02,; also recorded: HLA-DPA1*02:01/; also recorded: DPB1*01:01”.

For “GRSLKAINA (Leishmania major) [SEQ ID NO: 43]”, which “Affinity HLA alleles of class II” value is on record?
The value was “HLA-DRB1*01:01”.

Which “Affinity HLA alleles of class II” value does the source give for “VGRSLKAIN (Leishmania major) [SEQ ID NO: 51]” here?
The value was “HLA-DRB1*03:01,; also recorded: HLA-DRB1*04:05,; also recorded: HLA-DRB1*08:02,; also recorded: HLA-DRB1*11:01”.

How did the “Affinity HLA alleles of class II” value turn out when “LKAINAQMS (Leishmania major) [SEQ ID NO: 45]” was run?
Its value is “HLA-DRB1*04:05,; also recorded: HLA-DRB1*07:01,; also recorded: HLA-DRB1*08:02,; also recorded: HLA-DRB1*09:01,; also recorded: HLA-DRB1*11:01,; also recorded: HLA-DRB4*01:01,; also recorded: HLA-DRB5*01:01”.

same assay, conditions: H2B-II peptides, Table 1

Which “Concatenation affinity for the HLA alleles of class II” value does the source give for “KPKRSWNVYVGRSLK (Leishmania major) [SEQ ID NO: 25]” here?
The value was “HLA-DRB5*01:01, HLA-DRB1*01:01, HLA-DRB1*07:01,; also recorded: HLA-DRB1*09:01, HLA-DRB1*15:01”.

“SWNVYVGRSLKAINA (Leishmania major) [SEQ ID NO: 29]” was tested. Which “Concatenation affinity for the HLA alleles of class II” value did it give?
Its value is “HLA-DRB5*01:01, HLA-DRB1*04:05, HLA-DPA1*03:01/; also recorded: DPB1*04:02, HLA-DRB1*01:01, HLA-DRB1*03:01,; also recorded: HLA-DRB1*04:01, HLA-DRB1*11:01, HLA-DRB1*13:02,; also recorded: HLA-DRB1*07:01, HLA-DRB1*09:01, HLA-DRB1*15:01,; also recorded: HLA-DPA1*02:01/DPB1*01:01, HLA-DRB1*08:02”.

Which “Concatenation affinity for the HLA alleles of class II” value does the source give for “RSLKAINAWMSMSHR (RSLKAINAQMSMSHR; Leishmania major) [SEQ ID NO: 36]” here?
The value was “HLA-DRB1*04:01, HLA-DRB1*15:01, HLA-DRB1*05:01,; also recorded: HLA-DRB1*01:01, HLA-DRB1*04:05, HLA-DRB1*07:01,; also recorded: HLA-DRB1*08:02, HLA-DRB1*09:01, HLA-DRB1*11:01,; also recorded: HLA-DRB4*01:01,”.

Which “Concatenation affinity for the HLA alleles of class II” value does the source give for “YVGRSLKAINAQMSM (Leishmania major) [SEQ ID NO: 33]” here?
The value was “HLA-DRB1*04:01, HLA-DRB1*11:01, HLA-DRB1*08:02,; also recorded: HLA-DRB1*01:01, HLA-DRB1*04:05, HLA-DRB1*07:01,; also recorded: HLA-DRB1*09:01, HLA-DRB4*01:01, HLA-DRB5*01:01,”.

same assay, conditions: LmLRAB-IIA core, Table 2

How did the “Concatenation affinity for HLA alleles of class II” value turn out when “LHSVVGRHL (Leishmania major) [SEQ ID NO: 90]” was run?
Its value is “HLA-DRB1*11:01; also recorded: HLA-DRB1*15:01; also recorded: HLA-DRB4*01:01; also recorded: HLA-DRB5*01:01; also recorded: HLA-DRB1*07:01; also recorded: HLA-DRB1*09:01”.

“VGRHLSIVA (Leishmania major) [SEQ ID NO: 91]” was tested. Which “Concatenation affinity for HLA alleles of class II” value did it give?
Its value is “HLA-DRB1*15:01”.

same assay, conditions: LmLRAB-IIA peptides, Table 2

How did the “Concatenation affinity for HLA alleles of class II” value turn out when “KGRLHSVVGRHLSIV (Leishmania major) [SEQ ID NO: 78]” was run?
The value was “HLA-DRB1*07:01,; also recorded: HLA-DRB5*01:01,; also recorded: HLA-DRB1*11:01,; also recorded: HLA-DRB1*15:01,; also recorded: HLA-DRB1*09:01,; also recorded: HLA-DRB4*01:01”.

For “VVGRHLSIVADHMPH (Leishmania major) [SEQ ID NO: 84]”, which “Concatenation affinity for HLA alleles of class II” value is on record?
The value was “HLA-DRB1*01:01”.

How did the “Concatenation affinity for HLA alleles of class II” value turn out when “LHSVVGRHLSIVADH (Leishmania major) [SEQ ID NO: 81]” was run?
The value was “HLA-DRB1*07:01,; also recorded: HLA-DRB1*15:01,; also recorded: HLA-DRB5*01:01,; also recorded: HLA-DRB1*11:01,; also recorded: HLA-DRB1*09:01,”.

“RHLSIVADHMPLHDQ (RHLSIVADHMPHLDQ; Leishmania major) [SEQ ID NO: 87]” was tested. Which “Concatenation affinity for HLA alleles of class II” value did it give?
Its value is “HLA-DRB3*01:01,; also recorded: HLA-DRB1*03:01,; also recorded: HLA-DRB1*13:02”.

same assay, conditions: LmlRAB-IIB core, Table 2

How did the “Concatenation affinity for HLA alleles of class II” value turn out when “AIVTSRKVQ (Leishmania major) [SEQ ID NO: 119]” was run?
The value was “HLA-DRB1*11:01”.

For “YSEVSAKTK (Leishmania major) [SEQ ID NO: 127]”, which “Concatenation affinity for HLA alleles of class II” value is on record?
Its value is “HLA-DRB1*07:01,; also recorded: HLA-DRB5*01:01”.

same assay, conditions: LmlRAB-IIB peptides, Table 2

Which “Concatenation affinity for HLA alleles of class II” value does the source give for “SRKVQEEVFDLFTDV (Leishmania major) [SEQ ID NO: 114]” here?
The value was “HLA-DRB1*03:01, HLA-DPA1*01:03/DPB1*02:01,; also recorded: HLA-DPA1*02:01/DPB1*05:01,; also recorded: HLA-DPA1*03:01/DPB1*04:02”.

For “VTSRKQEEVFDLFT (Leishmania major) [SEQ ID NO: 118]”, which “Concatenation affinity for HLA alleles of class II” value is on record?
Its value is “HLA-DRB1*03:01, HLA-DPA1*01:03/DPB1*02:01,; also recorded: HLA-DPA1*02:01/DPB1*05:01,; also recorded: HLA-DPA1*03:01/HLA-DPB1*04:02,; also recorded: HLA-DPA1*02:01/HLA-DPB1*14:01”.

Which “Concatenation affinity for HLA alleles of class II” value does the source give for “RSENAIVTSRKVQEE (Leishmania major) [SEQ ID NO: 112]” here?
The value was “HLA-DRB1*01:01, HLA-DRB1*03:01,; also recorded: HLA-DRB1*07:01, HLA-DRB1*11:01,; also recorded: HLA-DRB5*01:01”.

“GRSENAIVTSRKVQE (Leishmania major) [SEQ ID NO: 104]” was tested. Which “Concatenation affinity for HLA alleles of class II” value did it give?
The value was “HLA-DRB1*01:01, HLA-DRB1*03:01,; also recorded: HLA-DRB1*07:01, HLA-DRB1*11:01,; also recorded: HLA-DRB1*12:01, HLA-DRB5*01:01”.

How did the “Concatenation affinity for HLA alleles of class II” value turn out when “SENAIVTSRKVQEEV (Leishmania major) [SEQ ID NO: 113]” was run?
Its value is “HLA-DRB1*03:01, HLA-DRB1*07:01,; also recorded: HLA-DRB1*08:02, HLA-DRB1*11:01,; also recorded: HLA-DRB1*12:01”.

For “RKVQEEVFDLFTDVH (Leishmania major) [SEQ ID NO: 111]”, which “Concatenation affinity for HLA alleles of class II” value is on record?
The value was “HLA-DRB1*03:01, HLA-DRB1*04:01,; also recorded: HLA-DPA1*02:01/DPB1*05:01,; also recorded: HLA-DPA1*03:01/DPB1*04:02”.

For “LFTDVHYSEVSAKTK (Leishmania major) [SEQ ID NO: 108]”, which “Concatenation affinity for HLA alleles of class II” value is on record?
The value was “HLA-DRB1*01:01, HLA-DRB1*04:01,; also recorded: HLA-DRB1*07:01, HLA-DRB1*09:01,; also recorded: HLA-DRB5*01:01, HLA-DPA1*01:03/DPB1*02:01,; also recorded: HLA-DPA1*01/DPB1*04:01,; also recorded: HLA-DPA1*02:01/HLA-DPB1*14:01”.

same assay, conditions: PSA KC-2.6 core, Table 3

Which “Concatenation affinity for HLA alleles of class II” value does the source give for “YFLTDEKTS (listed as Leishmania infantum) [SEQ ID NO: 150]” here?
The value was “HLA-DRB1*04:01,; also recorded: HLA-DRB1*11:01”.

same assay, conditions: PSA KC-2.6 peptides, Table 3

How did the “Concatenation affinity for HLA alleles of class II” value turn out when “EGYFLTDEKTSLVYG (listed as Leishmania infantum) [SEQ ID NO: 139]” was run?
Its value is “HLA-DRB1*12:01, HLA-DRB1*13:02,; also recorded: HLA-DRB3*01:01, HLA-DRB3*02:02,; also recorded: HLA-DPA1*03:01/DPB1*04:02; also recorded: HLA-DRB1*01:01, HLA-DRB1*03:01,; also recorded: HLA-DRB1*04:01, HLA-DRB1*04:05,; also recorded: HLA-DRB1*07:01, HLA-DRB1*11:01,”.

“GEGYFLTDEKTSLVY (listed as Leishmania infantum) [SEQ ID NO: 141]” was tested. Which “Concatenation affinity for HLA alleles of class II” value did it give?
Its value is “HLA-DRB1*01:01, HLA-DRB1*03:01,; also recorded: HLA-DRB1*04:01, HLA-DRB1*04:05,; also recorded: HLA-DRB1*07:01, HLA-DRB1*11:01,; also recorded: HLA-DRB1*12:01, HLA-DRB1*13:02,; also recorded: HLA-DRB3*01:01, HLA-DRB3*02:02,; also recorded: HLA-DPA1*03:01/DPB1*04:02,; also recorded: HLA-DPA1*02:01/HDPB1*14:01”.

How did the “Concatenation affinity for HLA alleles of class II” value turn out when “FLTDEKTSLVYGDGG (listed as Leishmania infantum) [SEQ ID NO: 140]” was run?
The value was “HLA-DRB1*03:01, HLA-DRB3*01:01”.

same assay, conditions: PSA KC-2.7 core, Table 3

Which “Concatenation affinity for HLA alleles of class II” value does the source give for “IRDLDFSNM (listed as Leishmania infantum) [SEQ ID NO: 174]” here?
The value was “HLA-DRB1*01:01,; also recorded: HLA-DRB4*01:01”.

With “FSNMGLLLS (listed as Leishmania infantum) [SEQ ID NO: 172]” as the sequence, how does the “Concatenation affinity for HLA alleles of class II” value read?
Its value is “HLA-DRB1*11:01”.

How did the “Concatenation affinity for HLA alleles of class II” value turn out when “MIRDLDFSN (listed as Leishmania infantum) [SEQ ID NO: 176]” was run?
Its value is “HLA-DRB1*03:01,; also recorded: HLA-DRB1*04:01,; also recorded: HLA-DRB1*04:05,; also recorded: HLA-DRB1*08:02”.

same assay, conditions: PSA KC-2.7 peptides, Table 3

How did the “Concatenation affinity for HLA alleles of class II” value turn out when “PSGSDYSHSMIRDLD (listed as Leishmania infantum) [SEQ ID NO: 164]” was run?
Its value is “HLA-DRB1*04:05, HLA-DRB1*07:01,; also recorded: HLA-DRB1*09:01, HLA-DRB5*01:01,; also recorded: LA-DPA1*02:01/DPB1*01:01”.

Which “Concatenation affinity for HLA alleles of class II” value does the source give for “YSHSMIRDLDFSNMG (listed as Leishmania infantum) [SEQ ID NO: 170]” here?
Its value is “HLA-DRB1*04:01, HLA-DRB1*04:05,; also recorded: HLA-DRB1*07:01, HLA-DRB1*08:02,; also recorded: HLA-DRB1*09:01, HLA-DRB1*12:01,; also recorded: HLA-DRB4*01:01”.
